Results reported in ChEMBL document CHEMBL1147274, “Isoflavans and a Stilbene from Wood of the Decay-Resistant Tropical Tree Diphysa robinioides” (1986).
≈ marks a conversion by molar mass, not a printed value. Calls of active or inactive are those of the source. The rule behind the calls is not given here.

Assays:
[1] = tested on: Staphylococcus aureus; assay: Antibacterial activity against Staphylococcus aureus ATCC 13709; format: functional
[2] = tested on: Pseudomonas aeruginosa; assay: Antibacterial activity against Pseudomonas aeruginosa ATCC 27853; format: functional, organism-based
[3] = tested on: Candida albicans; assay: […] activity against Candida albicans ATCC 10231; format: functional
[4] = tested on: Mycolicibacterium smegmatis; assay: Antibacterial activity against Mycobacterium smegmatis ATCC 607; format: functional
[5] = tested on: Salmonella enterica subsp. enterica serovar Gallinarum; assay: Antibacterial activity against Salmonella gallinarum ATCC 9184; format: functional
[6] = tested on: Klebsiella pneumoniae; assay: Antibacterial activity against Klebsiella pneumoniae ATCC 10031; format: functional
[7] = tested on: Escherichia coli; assay: Antibacterial activity against Escherichia coli ATCC 9637; format: functional

Row | Compound | MIC [1] | MIC [2] | MIC [3] | MIC [4] | MIC [5] | MIC [6] | MIC [7]
1 | COc1ccc([C@H]2COc3c(ccc(O)c3CC=C(C)C)C2)c(O)c1 | 6.25 µg/mL (≈ 18.4 µM) | inactive | 12.5 µg/mL (≈ 36.7 µM) | inactive | inactive | inactive | inactive
2 | O=C1c2c(O)cc(O)cc2OC(c2ccc(O)cc2)C1C1C(=O)c2c(O)cc(O)cc2OC1c1ccc(O)cc1 (stereo unspecified) [CHAMAEJASMIN] | 12.5 µg/mL (≈ 23 µM) | inactive | inactive | inactive | inactive | inactive | inactive
3 | CN[C@@H]1[C@H](O[C@H]2[C@H](O[C@H]3[C@H](O)[C@@H](O)[C@H](N=C(N)N)[C@@H](O)[C@@H]3N=C(N)N)O[C@@H](C)[C@]2(O)C=O)O[C@@H](CO)[C@H](O)[C@H]1O.CN[C@@H]1[C@H](O[C@H]2[C@H](O[C@H]3[C@H](O)[C@@H](O)[C@H](N=C(N)N)[C@@H](O)[C@@H]3N=C(N)N)O[C@@H](C)[C@]2(O)C=O)O[C@@H](CO)[C@H](O)[C@H]1O.O=S(=O)(O)O.O=S(=O)(O)O.O=S(=O)(O)O [STREPTOMYCIN SULFATE] | 5 µg/mL | inactive | inactive | 1.25 µg/mL | 50 µg/mL | 2.5 µg/mL | 5 µg/mL
